Measured values taken from patent US12590332B2, “Composition for diagnosing or treating kidney disease” (INJE UNIVERSITY INDUSTRY-ACADEMIC COOPERATION FOUNDATION, priority 2020, dated 2026).

Key:
mouse podocyte cell line = assay: VSIG4 expression in podocytes (mRNA by PCR, protein by Western blot); format: cell-based
Procedure: The mouse podocyte cell line was mixed with 10% heat inactivated fetal bovine serum, 100 IU/mL of penicillin, and […] of streptomycin in RPMI culture medium and cultured in a humid atmosphere in the presence of 5% CO2 at 37° C. To evaluate VSIG4 expression, low glucose (LG, 5.5 mM) and high glucose (HG, 55 mM), 100 nM angiotensin II, 1.0 μg/mL and 3.0 μg/mL of Adriamycin were treated. The medium in a plate in which cells are being cultured was removed and RNA was extracted using Trizol (Life Technologies, Gaithersburg, MD, USA). Reverse transcription (RT) was performed using a cDNA synthesis kit (Applied biosystems, Roche Inc., Foster City, CA, USA), mRNA expression was evaluated using polymerase chain reaction (PCR), and the expression level was corrected with β-actin or GAPDH. Proteins obtained by treating cell lysates with RIPA buffer were quantified, and 20 μg of protein was separated using 8-15% SDS-PAGE. After separation of the protein by electrophoresis using 10% SDS-PAGE, the protein was transferred to a PVDF membrane (Millipore corporation bedford, USA) using a PAGE transfer buffer (Amersham Life Science, Arlington Heights, IL) at 270 mA for 4 hours, reacted overnight at 4° C. using a blocking solution (5% skim milk), and washed with Tris buffered saline with Tween-20 (TBS-T buffer; 10 mM Tris-Cl, pH 7.8, […] Nacl, 0.05% Tween-20). […]

HK2 cells = assay: VSIG4 expression in HK2 renal tubular cells (mRNA by PCR, protein by Western blot); format: cell-based, human; conditions: renal tubular cells treated with TGF-β (10 ng/mL recombinant); FIG. 3
Procedure: HK2 cells (A TCC, Manassan, VA), immortalized human renal proximal tubule cells, were cultured by adding, in a DMEM medium (Mediatech Inc., Corning Subsidiary, Manassas, VA), 10% heat inactivated fetal bovine serum (Tissue Culture Biologicals, Tulare, CA, USA), 100 IU/mL of penicillin, and […] of streptomycin in a humid atmosphere in the presence of 5% CO2 at 37° C.
[…] The purchased scrambled siRNA (control siRNA) and VSIG4 siRNA (z391g, Santa Cruz Biotechnology, Santa Cruz, CA) were each transfected by 200 MOI to suppress VSIG4 expression in HK2 cells.
To inhibit TGF-β expression, TGF-β-siRNA (Santa Cruz Biotechnology, Santa Cruz, CA, USA) was used, and 10 ng/mL of recombinant TGF-β (R&D systems, Minneapolis, MN, USA) was used for TGF-β stimulation experiment.
The medium in a plate in which cells are being cultured was removed and RNA was extracted using Trizol (Life Technologies, Gaithersburg, MD, USA). Reverse transcription (RT) was performed using a cDNA synthesis kit (Applied biosystems, Roche Inc., Foster City, CA, USA), mRNA expression was evaluated using polymerase chain reaction (PCR), and the expression level was corrected with β-actin or GAPDH.
Proteins obtained by treating cell lysates with RIPA buffer were quantified, and 20 μg of protein was separated using 8-15% SDS-PAGE. […]

Balb/c male mice = assay: Adriamycin-induced renal injury model; conditions: 11 mg/kg once into tail vein, 4 weeks, FIG. 8

angiotensin II (DRVYIHPF; Angiotensin-2; UniProt P01019 25-32, looked up) [main substance of kidney damage used to stimulate podocytes]
expression of VSIG4 mRNA and protein (mouse podocyte cell line; podocytes stimulated with high glucose (55 mM) and angiotensin II (100 nM), compared to low glucose, FIG. 4): increased

TGF-β
VSIG4 expression (HK2 cells): increased

COc1cccc2c1C(=O)c1c(O)c3c(c(O)c1C2=O)C[C@@](O)(C(=O)CO)C[C@@H]3O[C@H]1C[C@H](N)[C@H](O)[C@H](C)O1 [Adriamycin]
expression of VSIG4 mRNA and protein (mouse podocyte cell line; podocytes, 1.0 μg/mL and 3.0 μg/mL, 12 hours and 24 hours, FIG. 9): increased over time | VSIG4 protein expression (urine) (Balb/c male mice; 24-hour urine, ELISA): significantly increased | albuminuria (Balb/c male mice; 24-hour urine): significantly increased | VSIG4 mRNA expression in kidney tissues (Balb/c male mice): significantly increased
